In patent US20070191315A1, “Method for administering ibandronate” (priority 2006, published 2007) one finds pain scores data, which are given here for one compound.

In the assay the test system is metastatic bone pain. As to the kind of experiment: Multicenter, randomized, active-controlled, double-blind trial of pain (BPI worst/average pain scales). The following applies: patients; ibandronic acid 6 mg IV over 15 min on Days 1, 2 and 3, then 50 mg orally daily from Day 22; 24 weeks; compared to placebo treatment. It is filed as in vivo. On the procedure: A multicenter, randomized, active-controlled, double-blind, parallel groups trial is conducted. Patients are centrally randomized via an interactive voice response system (IVRS) to treatment either with ibandronic acid or zoledronic acid. Study treatment begins within 96 hours of randomization. Treatment continues for 24 weeks. Patients record their pain on the WORST PAIN and the AVERAGE PAIN scales of the BPI, as well as daily analgesic use, on a nightly basis. Patients record the degree to which their pain interferes with normal functioning and any opioid side-effects weekly. WHO Performance Status, quality of life based on the EORTC QLQ-C30 instrument and quality of life based on the FACT-BP, an instrument specifically designed to measure quality of life in patients with bone pain are recorded at Day 8 and Weeks 6, 12, 18 and 24 of the trial. Patients have skeletal surveys performed at Baseline and at Weeks 12 and 24 as part of the monitoring of SREs. Patients randomized to the ibandronic acid arm receive ibandronic acid 6 mg intravenously over 15 minutes on Days 1, 2 and 3 of the trial, followed by ibandronic acid 50 mg orally daily beginning on Day 22 of the study. Patients also receive a placebo infusion every 3-4 weeks, depending on the underlying chemotherapy regimens patients may be receiving. Patients who are not receiving chemotherapy receive placebo infusions every 3 weeks. […]

Consider `CCCCCN(C)CCC(O)(P(=O)(O)O)P(=O)(O)O` [ibandronate, 3-(N-methyl-N-pentyl)amino-1-hydroxypropane-1,1-diphosphonic acid], for which the pain scores result is given as “significantly lower pain scores”.
